Experimental findings from the supplement of paper PMC10307832 are described below.

Holding throughout (assay): relative viability (nuclei count vs DMSO), 5 days (fraction); higher = more cells survive
Compound in experiment [1]: CC(C)C[C@H](NC(=O)[C@H](Cc1ccccc1)NC(=O)c1cnccn1)B(O)O [Bortezomib] + CC(=O)c1c(C)c2cnc(Nc3ccc(N4CCNCC4)cn3)nc2n(C2CCCC2)c1=O [Palbociclib] (partner 0.5 µM)
The procedure, abridged: (§1)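 Values are medians from duplicate plates. Each reflects relative viability, defined as the nuclei count of treated wells over that of vehicle wells. Lung cancer cell lines in 1536-well plates were pin-tool dosed one day after seeding with one drug alone or with a fixed anchor-drug dose plus five library-drug doses (not always all listed) in √10 steps, then fixed, stained and imaged at 4× after 5 days.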

Compound in experiment [2]: CC1=CC(=NN1)NC2=CC(=NC(=N2)/C=C/C3=CC=CC=C3)N4CCN(CC4)C + NC(=O)Nc1cc(-c2cccc(F)c2)sc1C(=O)N[C@H]1CCCNC1 [AZD7762] (partner 0.2 µM)
The procedure, abridged: as §1

Compound in experiment [3]: COC1=CC(c2cc3ccccc3[nH]2)=N/C1=C\c1[nH]c(C)cc1C [Obatoclax] + COc1cc2c(Oc3ccc(NC(=O)C4(C(=O)Nc5ccc(F)cc5)CC4)cc3F)ccnc2cc1OCCCN1CCOCC1 [Foretinib] (partner 0.25 µM)
The procedure, abridged: as §1

Compound in experiment [4]: COC1=CC(c2cc3ccccc3[nH]2)=N/C1=C\c1[nH]c(C)cc1C [Obatoclax] + Nc1nc2[nH]cc(CCc3ccc(C(=O)N[C@@H](CCC(=O)O)C(=O)O)cc3)c2c(=O)[nH]1 [Pemetrexed] (partner 0.2 µM)
An outline of the steps: as §1

As to ChaGo-K-1, the relative viability in experiment [1] (first compound 0.0002 µM) stood at 0.956; in experiment [1] (first compound 0.000632 µM), 0.903; in experiment [1] (first compound 0.002 µM), 0.942; in experiment [1] (first compound 0.006325 µM), 0.382; in experiment [1] (first compound 0.02 µM) it was 0.136; in experiment [2] (first compound 0.08 µM), 0.823. Moreover, the relative viability in experiment [2] (first compound 0.253 µM) was 0.935; in experiment [2] (first compound 0.8 µM), 0.824; in experiment [2] (first compound 2.53 µM), 0.439; in experiment [2] (first compound 8 µM), 0.241; in experiment [3] (first compound 0.01 µM), 0.83; in experiment [3] (first compound 0.03162 µM), 0.947. Further, the relative viability was determined as 0.913 in experiment [3] (first compound 0.1 µM); 0.901 in experiment [3] (first compound 0.3162 µM); 1.03 in experiment [3] (first compound 1 µM); 0.243 in experiment [4] (first compound 0.01 µM); 0.252 in experiment [4] (first compound 0.03162 µM); 0.261 in experiment [4] (first compound 0.1 µM). Besides, the results for the relative viability in experiment [4] (first compound 0.3162 µM) and in experiment [4] (first compound 1 µM) were 0.265 and 0.274, respectively.
Turning to NCI-H23, the relative viability in experiment [1] (first compound 0.0002 µM) was determined as 0.456; in experiment [1] (first compound 0.002 µM) it was 0.398; in experiment [1] (first compound 0.006325 µM), 0.158; in experiment [1] (first compound 0.02 µM), 0.13; in experiment [2] (first compound 0.08 µM), 0.246; in experiment [2] (first compound 0.253 µM), 0.186. Moreover, the relative viability in experiment [2] (first compound 0.8 µM) was determined as 0.23; in experiment [2] (first compound 2.53 µM), 0.094; in experiment [2] (first compound 8 µM), 0.101; in experiment [3] (first compound 0.01 µM) it was 1.04; in experiment [3] (first compound 0.03162 µM), 1; in experiment [3] (first compound 0.1 µM) it was 0.986. Also, the relative viability in experiment [3] (first compound 0.3162 µM) was 0.826; in experiment [3] (first compound 1 µM) it was 1.01; in experiment [4] (first compound 0.01 µM), 0.665; in experiment [4] (first compound 0.03162 µM) it was 0.636; in experiment [4] (first compound 0.1 µM) it was 0.717; in experiment [4] (first compound 0.3162 µM), 0.561. Also, in experiment [4] (first compound 1 µM), the relative viability stood at 0.468.
NCI-H1975: the relative viability is 0.663 in experiment [1] (first compound 0.0002 µM); 0.517 in experiment [1] (first compound 0.000632 µM); 0.138 in experiment [1] (first compound 0.002 µM); 0.1 in experiment [1] (first compound 0.006325 µM); 0.106 in experiment [1] (first compound 0.02 µM); 0.692 in experiment [2] (first compound 0.08 µM). The relative viability turned out to be 0.872 in experiment [2] (first compound 0.253 µM); 0.746 in experiment [2] (first compound 0.8 µM); 0.429 in experiment [2] (first compound 2.53 µM); 0.174 in experiment [2] (first compound 8 µM); 0.973 in experiment [3] (first compound 0.01 µM); 1.02 in experiment [3] (first compound 0.03162 µM). The relative viability came to 0.854 in experiment [3] (first compound 0.3162 µM); 0.296 in experiment [3] (first compound 1 µM); 0.298 in experiment [4] (first compound 0.01 µM); 0.297 in experiment [4] (first compound 0.03162 µM); 0.3 in experiment [4] (first compound 0.1 µM); 0.309 in experiment [4] (first compound 0.3162 µM). Moreover, the relative viability in experiment [4] (first compound 1 µM) came out at 0.208.
Regarding LK-2, the relative viability in experiment [1] (first compound 0.0002 µM) worked out at 0.649; in experiment [1] (first compound 0.000632 µM), 0.685; in experiment [1] (first compound 0.002 µM), 0.415; in experiment [1] (first compound 0.006325 µM), 0.125; in experiment [1] (first compound 0.02 µM), 0.133; in experiment [2] (first compound 0.08 µM) it was 0.245. The relative viability is 0.364 in experiment [2] (first compound 0.253 µM); 0.323 in experiment [2] (first compound 0.8 µM); 0.0834 in experiment [2] (first compound 2.53 µM); 0.0556 in experiment [2] (first compound 8 µM); 1.12 in experiment [3] (first compound 0.01 µM); 1.28 in experiment [3] (first compound 0.03162 µM). The relative viability in experiment [3] (first compound 0.1 µM) worked out at 1.51; in experiment [3] (first compound 0.3162 µM), 1.26; in experiment [3] (first compound 1 µM) it was 1.11; in experiment [4] (first compound 0.01 µM), 0.273; in experiment [4] (first compound 0.03162 µM), 0.227; in experiment [4] (first compound 0.1 µM), 0.248. The relative viability in experiment [4] (first compound 1 µM) turned out to be 0.317.
On to EKVX, for which the relative viability amounted to 0.361 in experiment [1] (first compound 0.0002 µM); 0.401 in experiment [1] (first compound 0.000632 µM); 0.28 in experiment [1] (first compound 0.002 µM); 0.171 in experiment [1] (first compound 0.006325 µM); 0.079 in experiment [1] (first compound 0.02 µM); 0.649 in experiment [2] (first compound 0.08 µM). For the same cell line, the relative viability in experiment [2] (first compound 0.253 µM) worked out at 0.667; in experiment [2] (first compound 0.8 µM) it was 0.753; in experiment [2] (first compound 2.53 µM) it was 0.413; in experiment [2] (first compound 8 µM) it was 0.122; in experiment [3] (first compound 0.01 µM), 0.911; in experiment [3] (first compound 0.03162 µM), 0.76. For the same cell line, the relative viability in experiment [3] (first compound 0.1 µM) came to 0.427; in experiment [3] (first compound 0.3162 µM) it was 0.752; in experiment [3] (first compound 1 µM), 1.09; in experiment [4] (first compound 0.01 µM) it was 0.397; in experiment [4] (first compound 0.1 µM), 0.358; in experiment [4] (first compound 0.3162 µM) it was 0.372. Moreover, in experiment [4] (first compound 1 µM), the relative viability was found to be 0.436.
In the case of NCI-H838, the relative viability stood at 0.211 in experiment [1] (first compound 0.0002 µM); 0.23 in experiment [1] (first compound 0.000632 µM); 0.191 in experiment [1] (first compound 0.002 µM); 0.136 in experiment [1] (first compound 0.006325 µM); 0.103 in experiment [1] (first compound 0.02 µM); 0.963 in experiment [2] (first compound 0.08 µM). The relative viability in experiment [2] (first compound 0.253 µM) stood at 1.09; in experiment [2] (first compound 0.8 µM), 0.99; in experiment [2] (first compound 2.53 µM), 0.782; in experiment [2] (first compound 8 µM) it was 0.623; in experiment [3] (first compound 0.01 µM), 1.03; in experiment [3] (first compound 0.03162 µM), 1.11. For the same cell line, the relative viability in experiment [3] (first compound 0.1 µM) was 0.996; in experiment [3] (first compound 0.3162 µM) it was 1.1; in experiment [3] (first compound 1 µM), 0.858; in experiment [4] (first compound 0.01 µM) it was 0.237; in experiment [4] (first compound 0.03162 µM), 0.247; in experiment [4] (first compound 0.1 µM) it was 0.233. Moreover, the relative viability in experiment [4] (first compound 0.3162 µM) stood at 0.223; in experiment [4] (first compound 1 µM) it was 0.198.
With NCI-H2085, the relative viability in experiment [1] (first compound 0.0002 µM) came to 0.464; in experiment [1] (first compound 0.000632 µM) it was 0.475; in experiment [1] (first compound 0.002 µM) it was 0.458; in experiment [1] (first compound 0.006325 µM), 0.253; in experiment [1] (first compound 0.02 µM), 0.232; in experiment [2] (first compound 0.08 µM), 0.95. The relative viability in experiment [2] (first compound 0.253 µM) stood at 1.09; in experiment [2] (first compound 0.8 µM) it was 0.882; in experiment [2] (first compound 2.53 µM), 0.272; in experiment [2] (first compound 8 µM), 0.186; in experiment [3] (first compound 0.01 µM), 0.761; in experiment [3] (first compound 0.03162 µM), 0.998. Moreover, the relative viability came out at 1.14 in experiment [3] (first compound 0.1 µM); 0.795 in experiment [3] (first compound 0.3162 µM); 0.531 in experiment [3] (first compound 1 µM); 0.886 in experiment [4] (first compound 0.01 µM); 1 in experiment [4] (first compound 0.03162 µM); 0.705 in experiment [4] (first compound 0.1 µM). For the same cell line, the relative viability was determined as 0.709 in experiment [4] (first compound 0.3162 µM) and 0.298 in experiment [4] (first compound 1 µM).
